System: MELC 745A-DS19 cells
Experiment: Induction of terminal differentiation of murine erythroleukemia cells (benzidine reactivity)
Type: cell-based
Settings: for Optimal Conc.: Table 1; for Benzidine Reactive Cells: at optimal concentration
Procedure: MELC 745A-DS19 cells and the variants of MELC derived from this cell line, namely, the vincristine-resistant MELC V3.17 and VCR.C(2)15 cell lines (26), and the dimethylsulfoxide-resistant cell line, DR10 (39), were maintained in alpha minimal essential medium containing 10% fetal calf serum (16). Cell cultures for all experiments were initiated with cells in logarithmic growth phase (day 2 cultured cells) at a density of 10^5 cells/ml. Inducer compounds were added in the final concentrations indicated below, dissolved in culture medium without fetal calf serum unless otherwise indicated. Cell density and benzidine reactively were determined as described (16).
Commitment to terminal differentiation, characterized by limited cell division (colony size<32 cells) and accumulation of hemoglobin (benzidine reactive colonies) was assayed by a colony cloning assay using 2% methylcellulose as described (25) (see Table 1 for results). HL-60 human leukemia cells, derived from peripheral blood leukocytes of a patient with acute promyelocytic leukemia (40). Induced differentiation of HL-60 cells assayed by determining the proportion of cells that developed the capacity to reduce nitroblue tetrazolium (NBT) (41) (see Table 2 for results).

Compound | Optimal Conc. [µM] | Benzidine Reactive Cells [%]
O=C(CCCCC(=O)Nc1ccccc1)NO [compound 1] | 80 | 70
O=C(CCCCCCCC(=O)Nc1ccccc1)NO [compound 4] | 20 | 8
O=C(CCCCCCCCC(=O)Nc1ccccc1)NO [compound 5] | 20 | 15
O=C(O)CCCCCCC(=O)Nc1ccc([N+](=O)[O-])cc1 [compound 8] |  | 32
O=C(O)CCCCCCC(=O)NC1CCCCC1 [compound 9] |  | 20
O=C(O)CCCCCCC(=O)Nc1ccc(OCc2ccccc2)cc1 [compound 10] | 250 | 26
CN(C)C(=O)CCCCCCC(=O)NO [compound 11] |  | 53
O=C(O)CCCCCCC(=O)NO [compound 12] |  | 35
COC(=O)CCCCCCC(=O)NO [compound 13] |  | 17
N#CCCCCCC(=O)NO [compound 14] |  | 30
CONC(=O)CCCCCCC(=O)NO [compound 15] |  | 43
O=C(CCCCCCC(=O)NC1CCCCC1)NO [compound 16] |  | 35
O=C(CCCCCCC(=O)N1CCCCC1)NO [compound 17] |  | 30
CC(C)(C)ONC(=O)CCCCCCC(=O)NO [compound 18] |  | 38
O=C(CCCCCCC(=O)NCc1ccccc1)NO [compound 19] |  | 24
N#Cc1ccccc1NC(=O)CCCCCCC(=O)NO [compound 23] | 16 | 65
O=C(CCCCCCC(=O)Nc1cccc([N+](=O)[O-])c1)NO [compound 24] | 5 | 30
O=C(CCCCCCC(=O)Nc1ccc(C(F)(F)F)cc1)NO [compound 27] | 5 | 47
Nc1ccccc1NC(=O)CCCCCCC(=O)NO [compound 28] | 20 | 54

Compound | Optimal Conc. [µM] | Benzidine Reactive Cells [%]
O=C(CCCCCCC(=O)Nc1cccc(Cl)c1)NO [compound 30] | 2 | 33
O=C(CCCCCCC(=O)Nc1ccccc1F)NO [compound 32] | 4 | 65
O=C(CCCCCCC(=O)Nc1cccc(F)c1)NO [compound 33] | 1 | 25
O=C(CCCCCCC(=O)Nc1ccc(F)cc1)NO [compound 34] | 4 | 43
O=C(CCCCCCC(=O)Nc1ccc(OCc2ccccc2)cc1)NO [compound 35] | 4 | 20
CNC(=O)c1ccc(NC(=O)CCCCCCC(=O)NO)cc1 [compound 37] | 30 | 16
O=C(CCCCCCC(=O)Nc1ccccc1Br)NO [compound 38] | 8 | 45
O=C(CCCCCCC(=O)Nc1ccccc1Cl)NO [compound 39] | 4 | 34
O=C(CCCCCCC(=O)Nc1ccc(Br)cc1)NO [compound 40] | 1.6 | 47
O=C(CCCCCCC(=O)Nc1cccc(F)c1F)NO [compound 41] | 8 | 24
O=C(CCCCCCC(=O)Nc1cc(F)c(F)cc1F)NO [compound 42] | 8 | 36
O=C(CCCCCCC(=O)Nc1c(F)cc(F)cc1F)NO [compound 44] | 16 | 47
O=C(CCCCCCC(=O)Nc1ccc(F)cc1F)NO [compound 45] | 6 | 60
O=C(CCCCCCC(=O)Nc1c(F)c(F)c(F)c(F)c1F)NO [compound 46] | 31 | 53
O=C(CCCCCCC(=O)Nc1ccc(F)c(F)c1)NO [compound 47] | 4 | 61
O=C(CCCCCCC(=O)Nc1cc(F)c(F)c(F)c1)NO [compound 48] | 8 | 55
O=C(CCCCCCC(=O)Nc1cc(F)ccc1F)NO [compound 49] | 4 | 70
O=C(CCCCCCC(=O)Nc1cc(F)cc(F)c1)NO [compound 50] | 2 | 73
COc1ccccc1NC(=O)CCCCCCC(=O)NO [compound 51] | 8 | 36

Compound | Optimal Conc. [µM] | Benzidine Reactive Cells [%]
COc1cccc(NC(=O)CCCCCCC(=O)NO)c1 [compound 52] | 6 | 38
COc1ccc(NC(=O)CCCCCCC(=O)NO)cc1 [compound 53] | 6 | 37
CN(C(=O)CCCCCCC(=O)NO)c1ccccc1 [compound 54] |  | 40
O=C(NO)c1ccc(C(=O)Nc2ccccc2)cc1 [compound 55] |  | 53
O=C(CCCCCCC(=O)Nc1ccc(C(=O)NO)cc1)Nc1ccc(C(=O)NO)cc1 [compound 57] | 8 | 10
N#CCc1ccc(NC(=O)CCCCCCC(=O)Nc2ccc(CC#N)cc2)cc1 [compound 58] | 50 | 25
O=C(CCCCCCC(=O)Nc1ccc(F)cc1F)Nc1ccc(F)cc1F [compound 59] | 500 | 54
O=C(CCCCCCC(=O)Nc1c(F)cccc1F)Nc1c(F)cccc1F [compound 60] | 100 | 21
O=C(CCCCCCC(=O)Nc1cc(F)cc(F)c1)Nc1cc(F)cc(F)c1 [compound 61] | 125 | 31
O=C(CCCCCCC(=O)Nc1c(F)ccc(F)c1F)Nc1c(F)ccc(F)c1F [compound 62] | 250 | 28
O=C(CCCCCCC(=O)Nc1c(F)cc(F)cc1F)Nc1c(F)cc(F)cc1F [compound 63] | 125 | 35
O=C(CCCCCCC(=O)Nc1c(F)c(F)c(F)c(F)c1F)Nc1c(F)c(F)c(F)c(F)c1F [compound 64] | 125 | 13
O=C(CCCCCCC(=O)Nc1ccc([N+](=O)[O-])cc1)Nc1ccc([N+](=O)[O-])cc1 [compound 65] | 25 | 14
CC(CCCCCC(C)C(=O)N(C)C)C(=O)N(C)C (stereo not shown) [compound 66] |  | 80
CC(CCCCC(C)C(=O)N(C)C)C(=O)N(C)C (stereo not shown) [compound 67] |  | 90
CC(CCC(=O)NO)CCC(=O)NO [compound 68] |  | 56
O=C(CCCCCC(CCCCCC(=O)NO)C(=O)NO)NO [compound 69] |  | 40
O=C(CCC(F)(F)CCC(=O)NO)NO [compound 70] |  | 19

Source: patent publication USRE38506E1, “Potent inducers of terminal differentiation and methods of use thereof” (Sloan-Kettering Institute for Cancer Research, priority 1991, dated 2004)
